# In patent US20220233529A1, “COMBINATION THERAPY COMPRISING A2A/A2B INHIBITORS, PD-1/PD-L1 INHIBITORS, AND ANTI-CD73 ANTIBODIES” (Incyte Corporation, priority 2020, published 2022):
# Where two headings read alike, the source gives them in different places.
# How the values were obtained:
# Adenosine A2A Receptor = target: T1, Adenosine A2A Receptor (Homo sapiens, UniProt P29274); assay: A2A Tag-lite HTRF assay; assay type: binding; conditions: Tag-lite Adenosine A2A labeled cells; fluorescent antagonist ligand 12.5 nM
# T1 construct: Tag-lite label (own knowledge: SNAP-tag fusion labeled with terbium); purchased CisBio C1TT1A2A
# Procedure: Test compounds were first serially diluted in DMSO and 100 nL added to the plate wells before the addition of other reaction components. The final concentration of DMSO was 1%. Tag-lite® Adenosine A2A labeled cells (CisBio C1TT1A2A) were diluted 1:5 into Tag-lite buffer (CisBio LABMED) and spun 1200 g for 5 mins.
# [1] = target: T2, human adenosine A2B receptor (Homo sapiens, UniProt P29275); assay: Adenosine A2B Receptor cyclic AMP GS Assay; assay type: cell-based
# T2 construct: host or cells: HEK-293 (stably transfected)
# T2 sequence (P29275 1-332): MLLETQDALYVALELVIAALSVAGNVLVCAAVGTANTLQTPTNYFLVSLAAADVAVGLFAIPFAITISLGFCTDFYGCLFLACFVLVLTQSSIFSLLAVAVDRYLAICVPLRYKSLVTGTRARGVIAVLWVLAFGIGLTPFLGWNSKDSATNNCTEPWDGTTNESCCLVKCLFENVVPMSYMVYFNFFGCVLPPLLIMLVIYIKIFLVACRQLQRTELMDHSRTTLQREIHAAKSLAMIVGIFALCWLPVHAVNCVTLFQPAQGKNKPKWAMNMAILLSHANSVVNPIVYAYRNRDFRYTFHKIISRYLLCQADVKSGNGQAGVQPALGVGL
# Procedure: Stably transfected HEK-293 cells expressing the human adenosine A2B receptor (Perkin Elmer) were maintained in MEM culture medium with 10% FBS and 100 μg/mL Geneticin (Life Technologies). 18 to 24 hours prior to assay, geneticin was removed from culture. The cisbio cAMP-GS Dynamic kit utilizing the FRET (Fluorescence Resonance Energy Transfer) technology was used to measure cAMP accumulation in the cells. Compounds of the present disclosure at an appropriate concentration were mixed with 10000 cells/well in white 96 well half area plates (Perkin Elmer) for 30 min at RT gently shaking. […] Detection reagents, d2-labeled cAMP (acceptor) and anti-cAMP cryptate (donor) were added to each well for 60 min at RT gently shaking.
# [2] = tested on: human breast adenocarcinoma tumor, MDA-MB-231; assay: Anti-tumor efficacy in humanized murine host carrying MDA-MB-231 tumor; assay type: in vivo, human CD34+ reconstituted mice; conditions: vs Vehicle + IgG isotype, ANTIBODY Y 10 mg/kg i.p. every 5 days, retifanlimab 1 mg/mL i.p. every 5 days, Compound 9 10 mg/kg p.o. b.i.d., dosing day 7-35
# Procedure: On day 7, and every 3 to 4 days subsequently, tumors were measured by Vernier caliper and tumor volume was calculated by the formula, Volume=[L (long dimension)×W^2 (short dimension)]/2. Based on these measurements, mice were randomized into 8 treatment groups of 10 mice each with an average starting tumor volume of 180 mm^3. The studied agents were formulated and administered as follows: ANTIBODY Y was diluted to a final concentration of 1 mg/mL in phosphate-buffered saline and administered by intraperitoneal (i.p.) injection at 10 mL/kg to mice for a dose of 10 mg/kg, every 5 days. Retifanlimab (Macrogenics) was diluted to 1 mg/mL and dosed i.p., every 5 days. For combination treatments, the two antibodies were co-formulated to a concentration of 1 mg/mL, each. The oral vehicle was 5% N,N-dimethylacetamide in 0.5% methyl-cellulose in 50 mM citrate buffer, pH 3.0 (all reagents obtained from Sigma) and was administered by oral gavage (p.o.) twice daily (b.i.d.).
# Dosing began at day 7, and ran for 28 days, through day 35. […]
# Tumor Growth Inhibition (TGI), defined as (1-treatment group volume)/control group volume)×100 was analyzed for the whole study on day 47, the last day prior to some animals leaving the study at their endpoint. […]
# [3] = HEK-293 cells expressing human A2B, agonist NECA 12 nM, cAMP accumulation, read-out: A2B—cAMP_EC50
# T1 sequence (P29274 whole entry, the tested form may be a part): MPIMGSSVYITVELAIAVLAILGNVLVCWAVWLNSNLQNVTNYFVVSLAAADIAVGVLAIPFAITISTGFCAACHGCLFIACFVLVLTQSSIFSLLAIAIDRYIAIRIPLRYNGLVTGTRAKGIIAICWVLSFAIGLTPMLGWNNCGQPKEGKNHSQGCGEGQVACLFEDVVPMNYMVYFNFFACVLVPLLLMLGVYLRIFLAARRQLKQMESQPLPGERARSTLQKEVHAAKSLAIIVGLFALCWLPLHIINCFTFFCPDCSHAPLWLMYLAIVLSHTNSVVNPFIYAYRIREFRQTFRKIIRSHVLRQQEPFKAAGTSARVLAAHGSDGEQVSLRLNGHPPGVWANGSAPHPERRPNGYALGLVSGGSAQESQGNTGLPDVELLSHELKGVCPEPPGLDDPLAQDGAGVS
Compound,Ki (Adenosine A2A Receptor) [nM],further results
"Cc1cccnc1COc1nc2c(-c3ccncn3)c(-c3cccc(C#N)c3)nc(N)n2n1 [Compound 4, 3-(5-Amino-2-((3-methylpyridin-2-yl)methoxy)-8-(pyrimidin-4-yl)-[1,2,4]triazolo[1,5-c]pyrimidin-7-yl)benzonitrile]",< 10,–
"N#Cc1cccc(-c2cc3nc(C(O)c4c(F)cccc4F)nn3c(N)n2)c1F (stereo not shown) [Compound 6, 3-(5-Amino-2-((2,6-difluorophenyl)(hydroxy)methyl)-[1,2,4]triazolo[1,5-c]pyrimidin-7-yl)-2-fluorobenzonitrile]",< 10,"EC50 [1, 3]: < 10 nM"
"Cn1nc(-c2c(-c3cccc(C#N)c3)nc(N)c3nc(Cc4ccccn4)nn23)ccc1=O [Compound 9, 3-(8-Amino-5-(1-methyl-6-oxo-1,6-dihydropyridazin-3-yl)-2-(pyridin-2-ylmethyl)-[1,2,4]triazolo[1,5-a]pyrazin-6-yl)benzonitrile]",–,Percent TGI (Day 47 Tumor Growth Inhibition) [2]: 18.42%
"Cc1ncoc1-c1c(-c2cccc(C#N)c2)nc(N)c2nc(C(N)c3c(F)cccc3F)nn12 (single isomer, unassigned) [Compound 11, 3-(8-amino-2-(amino(2,6-difluorophenyl)methyl)-5-(4-methyloxazol-5-yl)-[1,2,4]triazolo[1,5-a]pyrazin-6-yl)benzonitrile]",< 10,EC50 [1]: < 10 nM
"N#Cc1cccc(-c2cc3nc(C(O)c4ccccc4)nn3c(N)n2)c1 (stereo not shown) [Compound 5, 3-(5-Amino-2-(hydroxy(phenyl)methyl)-[1,2,4]triazolo[1,5-c]pyrimidin-7-yl)benzonitrile]",< 10,"EC50 [1, 3]: < 10 nM"
"retifanlimab: humanized IgG4 monoclonal antibody that binds to human PD-1; heavy chain SEQ ID NO:2, light chain SEQ ID NO:3",–,Percent TGI (Day 47 Tumor Growth Inhibition) [2]: 9.57%
"N#Cc1cccc(-c2nc(N)n3nc(C(O)c4c(F)cccc4F)nc3c2-c2ccncn2)c1 (single isomer, unassigned) [Compound 2, 3-(5-Amino-2-((2,6-difluorophenyl)(hydroxy)methyl)-8-(pyrimidin-4-yl)-[1,2,4]triazolo[1,5-c]pyrimidin-7-yl)benzonitrile]",< 10,–
"N#Cc1cccc(-c2nc(N)n3nc(Cc4ccccn4)nc3c2-c2ccncn2)c1 [Compound 1, 3-(5-Amino-2-(pyridin-2-ylmethyl)-8-(pyrimidin-4-yl)-[1,2,4]triazolo[1,5-c]pyrimidin-7-yl)benzonitrile]",< 10,–
"N#Cc1cccc(-c2nc(N)n3nc(C(O)c4c(F)cccc4F)nc3c2C#N)c1F (stereo not shown) [Compound 7, 5-Amino-7-(3-cyano-2-fluorophenyl)-2-((2,6-difluorophenyl)(hydroxy)methyl)-[1,2,4]triazolo[1,5-c]pyrimidine-8-carbonitrile]",< 10,"EC50 [1, 3]: < 10 nM"

# Now from value to compound, other results behind:
Ki (Adenosine A2A Receptor) [nM],Compound,further results
< 10,"CCCCCn1c2cc(-c3cnn(Cc4cncc(C)c4)c3)[nH]c2c(=O)n2c(C)nnc12 [Compound 18, 3-Methyl-7-(1-((5-methylpyridin-3-yl)methyl)-1H-pyrazol-4-yl)-9-pentyl-6,9-dihydro-5H-pyrrolo[3,2-d][1,2,4]triazolo[4,3-a]pyrimidin-5-one]",–
< 10,"Cn1nccc1-c1c(-c2cccc(C#N)c2F)nc(N)c2nn(Cc3ccccn3)nc12 [Compound 16, 3-(4-amino-7-(1-methyl-1H-pyrazol-5-yl)-2-(pyridin-2-ylmethyl)-2H-[1,2,3]triazolo[4,5-c]pyridin-6-yl)-2-fluorobenzonitrile]",–
< 10,"CCCCCn1c2cc(-c3cnn(Cc4cnc5ccsc5c4)c3)[nH]c2c(=O)n2c(C)nnc12 [Compound 19, 3-Methyl-9-pentyl-7-(1-(thieno[3,2-b]pyridin-6-ylmethyl)-1H-pyrazol-4-yl)-6,9-dihydro-5H-pyrrolo[3,2-d][1,2,4]triazolo[4,3-a]pyrimidin-5-one]",–
< 10,"N#Cc1cccc(-c2nc(N)c3nn(Cc4ncccc4F)nc3c2-c2ccncn2)c1 [Compound 14, 3-(4-amino-2-((3-fluoropyridin-2-yl)methyl)-7-(pyrimidin-4-yl)-2H-[1,2,3]triazolo[4,5-c]pyridin-6-yl)benzonitrile]",–
< 10,"N#Cc1cccc(-c2nc(N)c3nn(Cc4ccccn4)nc3c2-c2ccncn2)c1 [Compound 13, 3-(4-amino-2-(pyridin-2-ylmethyl)-7-(pyrimidin-4-yl)-2H-[1,2,3]triazolo[4,5-c]pyridin-6-yl)benzonitrile]",–
< 10,"CN1CCC(NCc2cccc(F)c2C(O)c2nc3cc(-c4cccc(C#N)c4F)nc(N)n3n2)C1=O (single isomer, unassigned) [Compound 8, 3-(5-Amino-2-((2-fluoro-6-(((1-methyl-2-oxopyrrolidin-3-yl)amino)methyl)phenyl)(hydroxy)methyl)-[1,2,4]triazolo[1,5-c]pyrimidin-7-yl)-2-fluorobenzonitrile]",–
< 10,"CCCCCn1c2cc(-c3cnn(Cc4ccc5c(c4)CCN(C(=O)CN(C)C)C5)c3)[nH]c2c(=O)n2c(C)nnc12 [Compound 20, 7-(1-((2-(2-(Dimethylamino)acetyl)-1,2,3,4-tetrahydroisoquinolin-6-yl)methyl)-1H-pyrazol-4-yl)-3-methyl-9-pentyl-6,9-dihydro-5H-pyrrolo[3,2-d][1,2,4]triazolo[4,3-a]pyrimidin-5-one]",–
< 10,"CCCCCn1c2cc(-c3cnn(Cc4cncc(Cl)c4)c3)[nH]c2c(=O)n2c(C)nnc12 [Compound 17, 7-(1-((5-Chloropyridin-3-yl)methyl)-1H-pyrazol-4-yl)-3-methyl-9-pentyl-6,9-dihydro-5H-pyrrolo[3,2-d][1,2,4]triazolo[4,3-a]pyrimidin-5-one]",–
< 10,"N#Cc1cccc(-c2nc(N)c3nn(Cc4ncccc4F)nc3c2-c2ccncc2)c1 [Compound 15, 3-(4-amino-2-((3-fluoropyridin-2-yl)methyl)-7-(pyridin-4-yl)-2H-[1,2,3]triazolo[4,5-c]pyridin-6-yl)benzonitrile]",–
